In patent publication US20060088815A1, “Method for evaluation of endocrine disruptive action” (THE UNIVERSITY OF TOKYO, priority 2004, published 2006):

Test system: hippocampal tissue slice
Test: Excitatory postsynaptic potential of hippocampal tissue slices on a multiple-electrode probe; NMDA-induced long-term depression
Assay type: cell-based, rat
Details: substance 1 nM perfused for 30 minutes before NMDA (30 μM, 3 minutes)
Description: Now, an example of a specific embodiment for the above-mentioned evaluating method 1 will be illustrated. First, the preparation of a cell group and a setting method of experimental conditions are explained below. With regard to the cell group, a tissue slice which was a transversely cut in a hippocampal region along a long-axis which was cut out from a brain tissue of an adult rat using a vibratome (DSK ZERO 1; manufactured by Dosaka EM K.K.) was used. Thickness of the hippocampal tissue slice was made 300 μm.
For the measurement of an electrophysiological response of this hippocampal tissue slice, a multiple-electrode measuring apparatus MED 64 System (Alpha Med) was used. With regard to an electrode arranged in the hippocampal tissue slice, a multiple-electrode probe MED-P530A (Alpha Med) attached to this multiple-electrode measuring apparatus was used. On a substrate of this multiple-electrode probe, plural electrodes are previously arranged regularly with a predetermined interval (300 μm).
One sheet of the hippocampal tissue slice cut out by a vibratome was allowed to stand in a chamber placed on a substrate of one multiple-electrode probe and, at the same time, an artificial cerebrospinal fluid sufficiently saturated with a mixed gas of oxygen and carbon dioxide (95% oxygen gas and 5% carbon dioxide gas) was filled in the chamber whereby the hippocampal tissue slice was soaked in the artificial cerebrospinal fluid followed by being allowed to stand at room temperature for 1 hour or longer. With regard to the artificial cerebrospinal fluid, an aqueous solution containing 124 mM of NaCl, 1.25 mM of NaH2PO4.2H2O, 5 mM of KCl, 2 mM of MgSO4.7H2O, 2 mM of CaCl2, 22 mM of NaHCO3 and 10 mM of […] was used.
In this artificial cerebrospinal fluid, the hippocampal tissue slice was placed on the multiple-electrode probe so that the cells included in each of three regions comprising one dentate gyrus and two cornu ammonis regions near the surface of the hippocampal tissue slice were brought into contact with plural electrodes on the multiple-electrode probe. Thus, a stimulating electrode which applies electrical stimulation to presynaptic fiber projecting to the nerve cell group and a recording electrode which records excitatory postsynaptic potential induced by the electrical stimulation in the nerve cell group as accumulated potential are arranged for each of pyramidal cells of cornu ammonis CA1 field, pyramidal cells of cornu ammonis CA3 field and granular cells of dentate gyrus.
Electrical stimulation to a hippocampal tissue slice by a stimulating electrode was carried out by repeated application of electrical stimulation at intervals of 15 seconds in the order of a stimulating electrode arranged in a cornu ammonis CA1 field, a stimulating electrode arranged in a cornu ammonis CA3 field, a stimulating electrode arranges in a dentate gyrus and, again, a stimulating electrode arranged in a cornu ammonis CA1 field. The excitatory postsynaptic potential induced by the electrical stimulation was recorded for about 30 minutes and, after confirming that the accumulated potential was stabilized, strength of electrical stimulation applied from the stimulating electrode was set in each of the following steps. […] When the strength of the measured accumulated potential was saturated (or became constant), the strength of the saturated accumulated potential was defined as maximum (100%) and strength of electrical stimulation to be applied to the hippocampal tissue slice from the stimulating electrode was set so as to make the value 50% of the above maximum value.
In this Example, DES was used as an object substance, estradiol, which is one example of estrogen, was used as an agonist to hormone receptor and NMDA was used as a stimulant. […]

SMILES | excitatory postsynaptic potential 50 minutes after administration of NMDA, relative to that before administration of NMDA (cornu ammonis CA1 field) | excitatory postsynaptic potential 50 minutes after administration of NMDA, relative to that before administration of NMDA (cornu ammonis CA3 field) | excitatory postsynaptic potential 50 minutes after administration of NMDA, relative to that before administration of NMDA (dentate gyrus)
CC/C(=C(/CC)c1ccc(O)cc1)c1ccc(O)cc1 [DES, diethylstilbestrol] | about 40% | about 75% | about 68%
C[C@]12CC[C@@H]3c4ccc(O)cc4CC[C@H]3[C@@H]1CC[C@@H]2O [estradiol] | about 40% | about 55% | about 80%
